Test results from patent US20230293698A1, “METAL-ORGANIC FRAMEWORKS DELIVER SMALL MOLECULES AND BIOMACROMOLECULES FOR CANCER IMMUNOTHERAPY” (The University of Chicago, priority 2020, published 2023).

Assays:
MC38 tumor = conditions: intratumoral injection, Cy5 label
From the text: The images were processed and analyzed by software sold under the tradename LIVING IMAGE® 4.7.2 (PerkinElmer, Waltham, Massachusetts, United States of America).

[1] = Toxicity after intravenous injection; assay type: in vivo; conditions: C57BL/6 mice, biweekly, total of 4 doses

Compound	fluorescence signal retention in tumor (MC38 tumor)	toxicity (bodyweight gains) [1]
Nc1nc2c(ncn2[C@@H]2O[C@@H]3COP(=O)(O)O[C@H]4[C@@H](O)[C@H](n5cnc6c(N)ncnc65)O[C@@H]4COP(=O)(O)O[C@@H]2[C@@H]3O)c(=O)[nH]1 [cGAMP, cyclic guanosine monophosphate-adenosine monophosphate]	diffused and disappeared quickly	–
Ir(DBB)[dF(CF3)ppy]2^+ [DBB^F-Ir]	–	did not cause toxicity
